Assay results as given in ChEMBL document CHEMBL1132847, “Substituted 1,6-naphthyridines as human cytomegalovirus inhibitors: conformational requirements” (Bioorg Med Chem Lett, 2000).
Converted amounts (≈) assume the structure as drawn.

System: Human betaherpesvirus 5
Assay: Concentration required to inhibit human cytomegalovirus by 50 percent
Format: functional, organism-based

Row | SMILES | IC50
1 | Cc1ccccc1CNC(=O)c1ccc2cnccc2n1 | 1 µg/mL (≈ 3.61 µM)
2 | CCOc1ccccc1CNC(=O)c1ccc2cnccc2n1 | 0.1 µg/mL (≈ 0.325 µM)
3 | Cc1cncc2ccc(C(=O)NCc3ccccc3OC(C)C)nc12 | 0.0004 µg/mL (≈ 0.00119 µM)
4 | O=C(NCc1ccccc1OC(F)(F)F)c1ccc2cnccc2n1 | 1 µg/mL (≈ 2.88 µM)
5 | O=C(NC1CCOc2ccccc21)c1ccc2cnccc2n1 (stereo not drawn) | 20 µg/mL (≈ 65.5 µM)

Other lines, results leading:

Row | IC50 | SMILES
6 | > 25 µg/mL | COc1ccccc1CN(C)C(=O)c1ccc2cnccc2n1
7 | 0.5 µg/mL (≈ 1.57 µM) | O=C(NC1CCCOc2ccccc21)c1ccc2cnccc2n1 (stereo not drawn)
8 | 0.005 µg/mL (≈ 0.0156 µM) | CC(C)Oc1ccccc1CNC(=O)c1ccc2cnccc2n1
